Source: ChEMBL document CHEMBL4376811, “Naturally Occurring Lumazines” (J Nat Prod, 2019)
Values after ≈ are worked out from the molar mass of the structure shown.

Experiments:
[1] = target: Sodium/potassium-transporting ATPase; test: Inhibition of Na+/K+-ATPase in human placental syncytiotrophoblast-microvillous membranes/basal membranes using 3-O-methylfluorescein phosphate by fluorometric method
Sortase A = target: T1, Sortase A (Staphylococcus aureus, UniProt Q9S446); test: Inhibition of recombinant Staphylococcus aureus ATCC 6538p sortase A incubated for 1 hr in presence of (Dabcyl-QALPETGEE-Edans substrate by fluorescence spectrophotometry
T1 sequence (Q9S446 whole entry): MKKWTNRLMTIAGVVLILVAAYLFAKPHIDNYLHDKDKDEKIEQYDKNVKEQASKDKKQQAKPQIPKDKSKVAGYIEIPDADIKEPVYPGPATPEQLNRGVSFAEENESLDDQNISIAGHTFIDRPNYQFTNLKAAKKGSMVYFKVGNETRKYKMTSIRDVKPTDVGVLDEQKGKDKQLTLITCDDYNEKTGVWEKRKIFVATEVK

[2] = Inhibition of Magnaporthe grisea Guy 11 isocitrate lyase; design: species or system Pyricularia grisea
PC-12 = test: Anti-anoxic activity in rat PC12 cells reduction in assessed as sodium hydrosulfite-induced cell injury; assay type: functional, cell-based
Cathepsin B = Cathepsin B (Homo sapiens, UniProt P07858); test: Inhibition of cathepsin B (unknown origin) assessed as reduction in enzyme activity

For `COC(=O)c1ccccc1NC(=O)[C@H](CO)NC(=O)c1cnc2c(n1)c(=O)[nH]c(=O)n2C`, which IC50 [1] is on record?
The IC50 was over 100 µM.

What about the IC50 (Sortase A) of the same molecule?
The IC50 was over 100 µM.

What about the IC50 [2] of the same molecule?
The IC50 was over 100 µM.

Which EC50 (PC-12) does the source give for `CSc1c(C(=O)O)sc2nc3[nH]c(=O)[nH]c(=O)c3nc12` here?
Its EC50 is 27 µg/mL (≈ 87 µM).

For `CN(CCc1cnc[nH]1)c1cnc2[nH]c(=O)[nH]c(=O)c2n1`, which IC50 (Cathepsin B) is on record?
The IC50 was 4.87 µM.

What does the source list for `COC(=O)c1ccccc1NC(=O)[C@@H](NC(=O)c1cnc2c(n1)c(=O)[nH]c(=O)n2C)[C@@H](C)O`?
IC50 [1]: > 100 µM; IC50 (Sortase A): > 100 µM; IC50 [2]: > 100 µM

For `CSc1c(C(=O)CO)sc2nc3[nH]c(=O)[nH]c(=O)c3nc12`, which EC50 (PC-12) is on record?
The EC50 was 19.5 µg/mL (≈ 60.2 µM).

Which EC50 (PC-12) does the source give for `COCCOC(=O)C1=C(C)NC(C)=C(C(=O)OC(C)C)C1c1cccc([N+](=O)[O-])c1` (stereo not given) [NIMODIPINE] here?
The EC50 was 1.29 µg/mL (≈ 3.08 µM).
